Read-outs that look alike come from different tables or passages of the source. Blank lines part the entries; values can stand above or below the compound they belong to.
Test system: PMA-differentiated THP-1 cells
Assay: hTHP-1 assay containing 10% fetal bovine serum (IL-1β production, Tables B5 and B6)
Type: cell-based, human
Protocol: The following protocol is suitable for testing the activity of the compounds disclosed herein. Procedure 1: IL-1β Production in PMA-Differentiated THP-1 Cells Stimulated with Gramicidin.
THP-1 cells were purchased from the American Type Culture Collection and sub-cultured according to instructions from the supplier. Cells were cultured in complete RPMI 1640 (containing 10% heat inactivated FBS, penicillin (100 units/ml) and streptomycin (100 μg/ml)), and maintained in log phase prior to experimental setup. Prior to the experiment, compounds were dissolved in dimethyl sulfoxide (DMSO) to generate a 30 mM stock. The compound stock was first pre-diluted in DMSO to 3, 0.34, 0.042 and 0.0083 mM intermediate concentrations and subsequently spotted using Echo550 liquid handler into an empty 384-well assay plate to achieve desired final concentration (e.g. 100, 33, 11, 3.7, 1.2, 0.41, 0.14, 0.046, 0.015, 0.0051, 0.0017 μM). DMSO was backfilled in the plate to achieve a final DMSO assay concentration of 0.37%. The plate was then sealed and stored at room temperature until required.
THP-1 cells were treated with PMA (Phorbol 12-myristate 13-acetate) (20 ng/ml) for 16-18 hours. On the day of the experiment the media was removed and adherent cells were detached with trypsin for 5 minutes. […] The cells were plated in the 384-well assay plate containing the spotted compounds at a density of 50,000 cells/well (final assay volume 50 μl). Cells were incubated with compounds for 1 hour and then stimulated with gramicidin (5 μM) (Enzo) for 2 hours. Plates were then centrifuged at 340 g for 5 min. Cell free supernatant (40 μL) was collected using a 96—CHannel PlateMaster (Gilson) and the production of IL-1β was evaluated by HTRF (cisbio). The plates were incubated for 18 h at 4° C. and read using the preset HTRF program (donor emission at 620 nm, acceptor emission at 668 nm) of the SpectraMax i3x spectrophotometer (Molecular Devices, software SoftMax 6). A vehicle only control and a dose titration of CRID3 (100-0.0017 μM) were run concurrently with each experiment.
Procedure 2: IL-1β Production in PMA-Differentiated THP-1 Cells Stimulated with Gramicidin.
THP-1 cells were purchased from the American Type Culture Collection and sub-cultured according to instructions from the supplier. Prior to experiments, cells were cultured in complete RPMI 1640 (containing 10% heat inactivated FBS, penicillin (100 units/ml) and streptomycin (100 μg/ml)), and maintained in log phase prior to experimental setup. Prior to the experiment THP-1 were treated with PMA (Phorbol 12-myristate 13-acetate) (20 ng/ml) for 16-18 hours. Compounds were dissolved in dimethyl sulfoxide (DMSO) to generate a 30mM stock. On the day of the experiment the media was removed and adherent cells were detached with trypsin for 5 minutes. […] The cells were plated in a 384-well plate at a density of 50,000 cells/well (final assay volume […]). Compounds were first dissolved in assay medium to obtain a 5× top concentration of 500 μM. 10 step dilutions (1:3) were then undertaken in assay medium containing 1.67% DMSO. 5× compound solutions were added to the culture medium to achieve desired final concentration (e.g. 100, 33, 11, 3.7, 1.2, 0.41, 0.14, 0.046, 0.015, 0.0051, 0.0017 μM). Final DMSO concentration was at 0.37%. Cells were incubated with compounds for 1 hour and then stimulated with gramicidin (5 μM) (Enzo) for 2 hours. Plates were then centrifuged at 340 g for 5 min. Cell free supernatant (40 μL) was collected using a 96—CHannel PlateMaster (Gilson) and the production of IL-1β was evaluated by HTRF (cisbio). A vehicle only control and a dose titration of CRID3 (100-0.0017 μM) were run concurrently with each experiment.
Tables B1, B2, B3, and B4 show the biological activity of compounds in hTHP-1 assay containing 2% fetal bovine serum. […] Key: <0.008 μM=“++++++”; ≥0.008 and <0.04 μM=“+++++”; >0.04 and <0.2 μM=“++++”; ≥0.2 and <1 μM=“+++”; ≥1 and <5 μM=“++”; ≥5 and <30 μM=“+”. […]

[1] = read-out: hTHP-1 IC50 in 10% FBS, hTHP-1 assay containing 10% fetal bovine serum, Table B6
[2] = Homo sapiens, THP-1, read-out: hTHP-1 IC50 in 10% FBS, hTHP-1 assay containing 10% fetal bovine serum, Table B5

IC50 (read-out: hTHP-1 IC50 in 10% FBS, hTHP-1 assay containing 10% fetal bovine serum, Table B5, listed as 825): 8 to 40 nM
Compound: CCn1cc(F)c(S(N)(=O)=NC(=O)Nc2c(C)c(C(F)(F)F)nc3c2CC(C)C3)n1 (single isomer, unassigned) [Compound 1101e, (R, S) or (R, R)-N′-((3,6-dimethyl-2-(trifluoromethyl)-6,7-dihydro-5H-cyclopenta[b]pyridin-4-yl)carbamoyl)-1-ethyl-4-fluoro-1H-pyrazole-3-sulfonimidamide]

IC50 (Homo sapiens, THP-1, read-out: hTHP-1 IC50 in 10% FBS, hTHP-1 assay containing 10% fetal bovine serum, Table B6): 40 to 200 nM
Compound: NS(=O)(=NC(=O)Nc1c2c(nc3c1CCC31CC1)CCC2)c1nn(C2CC2)cc1F (stereo not shown) [Example 857, 1-Cyclopropyl-4-fluoro-N′-((1′,5′,6′,7′-tetrahydro-2′H-spiro[cyclopropane-1,3′-dicyclopenta[b,e]pyridin]-8′-yl)carbamoyl)-1H-pyrazole-3-sulfonimidamide]

IC50 [1]: 40 to 200 nM
Compound: NS(=O)(=NC(=O)Nc1c2c(nc3c1CCC31CC1)CCC2)c1nn(C2CC2)cc1F (single isomer, unassigned) [Example 866, (S) or (R)-1-cyclopropyl-4-fluoro-N′-((1′,5′,6′,7′-tetrahydro-2′H-spiro[cyclopropan-1,3′-dicyclopenta[b,e]pyridin]-8′-yl)carbamoyl)-1H-pyrazole-3-sulfonimidamide]

IC50 (read-out: hTHP-1 IC50 in 10% FBS, hTHP-1 assay containing 10% fetal bovine serum, Table B5, listed as 846): 200 to 1000 nM
Compound: CC(F)(F)n1cc(F)c(S(N)(=O)=NC(=O)Nc2c3c(nc4c2CCC4)CCC3)n1 (single isomer, unassigned) [Compound 1115a, (R) or (S)-1-(1,1-difluoroethyl)-4-fluoro-N′-((l,2,3,5,6,7-hexa-hydrodicyclopenta[b,e]pyridin-8-yl)carbamoyl)-1H-pyrazole-3-sulfonimidamide]

IC50 [2]: 5000 to 30000 nM
Compound: Cc1c(C(F)(F)F)nc2c(c1NC(=O)N=S(N)(=O)c1cnc(C(F)(F)F)s1)CCC2 (stereo not shown) [Compound 1118, N′-((3-methyl-2-(trifluoromethyl)-6,7-dihydro-5H-cyclopenta [b]pyridin-4-yl)carbamoyl)-2-(trifluoromethyl) thiazole-5-sulfonimidamide]

IC50 (read-out: hTHP-1 IC50 in 10% FBS, hTHP-1 assay containing 10% fetal bovine serum, Table B5, listed as 841): 1000 to 5000 nM
Compound: Cc1c(C(F)(F)F)nc2c(c1NC(=O)N=S(N)(=O)c1scc(C(C)(C)O)c1F)CCC2 (single isomer, unassigned) [Compound 1108b, (S) or (R)-3-fluoro-4-(2-hydroxypropan-2-yl)-N′-((3-methyl-2-(trifluoromethyl)-6,7-dihydro-5H-cyclopenta[b]pyridin-4-yl)carbamoyl)thiophene-2-sulfonimidamide]

IC50 [1]: < 8 nM
Compound: C[C@@H]1CCc2c1nc1c(c2NC(=O)N=S(N)(=O)c2nn(C3CC3)cc2F)CCC1 (single isomer, unassigned) [Example 867, (R) or (S)-1-cyclopropyl-4-fluoro-N′-(((R)-3-methyl-1,2,3,5,6,7-hexahydrodicyclopenta[b,e]pyridin-8-yl)carbamoyl)-1H-pyrazole-3-sulfonimidamide]

IC50 (read-out: hTHP-1 IC50 in 10% FBS, hTHP-1 assay containing 10% fetal bovine serum, Table B5, listed as 833): 1000 to 5000 nM
Compound: Cc1c(C(F)(F)F)nc2c(c1NC(=O)N=S(N)(=O)c1nn(C(C)(F)F)cc1F)CCC2 (single isomer, unassigned) [Compound 1004b, (S) or (R)-1-(1,1-Difluoroethyl)-4-fluoro-N′-((3-methyl-2-(trifluoromethyl)-6,7-dihydro-5H-cyclopenta[b]pyridin-4-yl)carbamoyl)-1H-pyrazole-3-sulfonimidamide]

IC50 (read-out: hTHP-1 IC50 in 10% FBS, hTHP-1 assay containing 10% fetal bovine serum, Table B5, listed as 837): 8 to 40 nM
Compound: CCn1cc(F)c(S(N)(=O)=NC(=O)Nc2c3c(nc(C(F)(F)F)c2-c2ccc(F)c(F)c2)CCC3)n1 (single isomer, unassigned) [Compound 1113b, (R) or (S)-N′-((3-(3,4-difluorophenyl)-2-(trifluoromethyl)-6,7-dihydro-5H-cyclopenta[b]pyridin-4-yl)carbamoyl)-1-ethyl-4-fluoro-1H-pyrazole-3-sulfonimidamide]

IC50 [2]: 5000 to 30000 nM
Compound: Cc1c(C(F)(F)F)nc2c(c1NC(=O)N=S(N)(=O)c1cnc(C(F)F)s1)CCC2 (stereo not shown) [Compound 1007, 2-(Difluoromethyl)-N′-((3-methyl-2-(trifluoromethyl)-6,7-dihydro-5H-cyclopenta[b]pyridin-4-yl)carbamoyl)thiazole-5-sulfonimidamide]

— patent publication US20230031406A1, “COMPOUNDS AND COMPOSITIONS FOR TREATING CONDITIONS ASSOCIATED WITH NLRP ACTIVITY” (Novartis AG, priority 2018, published 2023)
